The target of assay [1] is T1, His tagged full-length PTPN1 protein (Homo sapiens, UniProt P18031).
T1 construct: His; made in house
T1 sequence (P18031 1-435): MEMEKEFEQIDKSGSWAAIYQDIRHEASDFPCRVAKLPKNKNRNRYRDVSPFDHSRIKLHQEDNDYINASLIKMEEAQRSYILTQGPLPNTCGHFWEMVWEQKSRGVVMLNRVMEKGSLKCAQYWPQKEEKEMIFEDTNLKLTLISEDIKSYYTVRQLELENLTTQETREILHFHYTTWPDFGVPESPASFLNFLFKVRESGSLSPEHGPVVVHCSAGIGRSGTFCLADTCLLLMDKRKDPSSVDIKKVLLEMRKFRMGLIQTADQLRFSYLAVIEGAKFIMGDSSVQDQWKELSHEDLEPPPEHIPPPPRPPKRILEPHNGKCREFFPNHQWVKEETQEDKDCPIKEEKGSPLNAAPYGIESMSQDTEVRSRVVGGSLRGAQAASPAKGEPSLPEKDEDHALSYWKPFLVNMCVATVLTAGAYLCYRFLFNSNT
The assay can be described thus: Mobility Shift Assay (MSA) for PTPN1 inhibitors. In kind it is biochemical. As to conditions: enzyme 0.5 nM, substrate 2 μM, 10 minutes preincubation at room temperature. On the procedure:
Example 44: Mobility Shift Assay (MSA) Used to Determine Potency of PTPN1 Inhibitors
Compound activity was determined using in house His tagged full-length PTPN1 protein (SEQ ID NO: 3) in an in vitro enzymatic reaction. The enzymatic assay used to determine activity is a mobility shift assay using a LabChip EZ Reader by Caliper Life Sciences. The enzymatic reaction was carried out in assay buffer (50 mM HEPES pH 7.5, 1 mM EGTA, 10 mM EDTA, 0.010% Tween® 20, and 2 mM DTT). The compounds were dispensed on a white 384 well ProxiPlate™ (PerkinElmer Cat #6008289) plate using a Labcyte Echo® liquid handler at varying concentrations (12 point, 1:3 dilution). The enzyme (at 0.5 nM) was incubated with compound for 10 minutes at room temperature. Thereafter, the substrate (phosphorylated insulin receptor probe sequence: ((OG488)-(NH—CH2—CH2—O—CH2—CH2—O—CH2—CO)-T-R-D-I—(PY)-E-T-D-Y—Y—R—K—K—NH2) (SEQ ID NO: 2) was added at 2 μM to the plates and incubated for another 10 minutes at room temperature. Finally, a quench solution (water and 4-bromo-3-(2-oxo-2-propoxyethoxy)-5-(3-{[1-(phenylmethanesulfonyl)piperidin-4-yl]amino}phenyl)thiophene-2-carboxylic acid) was added to the plates, which were then run on the EZ Reader (excitation 488 nm, emission 530 nm) to measure % conversion (the amount of phosphorylated substrate which was de-phosphorylated by PTPN1). […] The % inhibition was then used to calculate the IC50 values.

Assay [2] has as its system IFNγ-induced STAT1 phosphorylation (pSTAT1) in B16F10 cells. Description: B16F10 Phospho-STAT1 HTRF proximal pharmacodynamic (PD) assay. Type of assay: cell-based, murine. Conditions: for EC50: B16-F10; for Thiochromane x-fold>potency cellular: pSTAT1 EC50 of chromane comparator over thiochromane. On the procedure:
Example 45: B16F10 (Murine Melanoma Cells) Phospho-STAT1 HTRF Proximal Pharmacodynamic (PD) Assay
B16F10 cells were grown and maintained in high glucose DMEM (Gibco, Catalog #11965-092, Dun Laoghaire Co Dublin) supplemented with 10% fetal bovine serum (Gibco, Catalog #10082-139, Dun Laoghaire Co Dublin). The cells were pelleted and resuspended in high glucose DMEM without phenol red (Gibco, Catalog #11054-020, Dun Laoghaire Co Dublin), supplemented with 10% fetal bovine serum and plated in a 384 well Corning plate (product #3765, Corning, NY) at 11,000 cells per well in a volume of 20 μL. The cells were dosed with the compounds of interest using an Echo Liquid Handler (Beckman Coulter, Brea, CA) at 50 μM top dose with 3-fold dilutions down to 0.002679 μM for a 10-point dose response. The plate was incubated for 3 hours at 37° C. and subsequently treated with recombinant mouse IFNγ (R&D Systems, Catalog #485-MI, Minneapolis, MN; 100 nM final concentration) for 10 minutes at 37° C. to induce STAT1 phosphorylation followed by 3.3 μM staurosporine treatment for 1 hour at 37° C. to terminate phosphorylation. Media was then aspirated and 20 μL of 1× lysis buffer/blocking reagent (Cisbio Phospho-STAT1 kit, part #63ADK026PEH, Bedford, MA) was added. The plate was placed on a plate shaker for 30 minutes at room temperature, sealed, and stored at −80° C. until needed. To thaw, the plate was placed on shaker at room temperature until completely thawed while the antibody master mix was made (1:40 Phospho-STAT1 Eu Cryptate antibody, 1:40 Phospho-STAT1 d2 antibody, with the detection buffer; Cisbio Phospho-STAT1 kit, part #63ADK026PEH, Bedford, MA). The antibody master mix was then dispensed at 4 μL per well into a 384 ProxiPlate Plus (PerkinElmer, part #6008289, Waltham, MA) and 16 μL of lysate was added from the Corning plate to the Proxiplate using a VIAFLO 384 (INTEGRA). The plate was incubated for 3 hours at room temperature and read on an EnVision® (Perkin Elmer) plate reader with laser excitation at 335 nm and emission at 665 nm. Dotmatics Studies (Bishop's Stortford, UK) was utilized to generate all dose-response curves and calculate EC50s and are shown in Table 2.

The target in assay [3] is T2, His tagged PTPN2 (TC45) protein (Homo sapiens, UniProt P17706).
T2 construct: His; made in house
T2 sequence (P17706 1-387 isoform P17706-2): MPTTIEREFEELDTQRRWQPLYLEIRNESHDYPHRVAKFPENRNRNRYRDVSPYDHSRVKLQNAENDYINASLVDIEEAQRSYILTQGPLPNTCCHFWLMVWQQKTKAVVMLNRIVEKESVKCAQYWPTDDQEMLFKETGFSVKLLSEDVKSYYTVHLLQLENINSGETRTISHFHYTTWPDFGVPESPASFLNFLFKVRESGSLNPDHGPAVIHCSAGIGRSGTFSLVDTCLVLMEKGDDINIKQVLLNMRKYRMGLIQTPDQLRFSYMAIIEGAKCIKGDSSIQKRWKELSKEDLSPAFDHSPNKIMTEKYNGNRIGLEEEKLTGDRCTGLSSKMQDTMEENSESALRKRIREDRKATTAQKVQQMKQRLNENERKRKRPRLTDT
The assay can be described thus: Mobility Shift Assay (MSA) for PTPN2 inhibitors. Type of assay: biochemical. As to conditions: for Thiochromane x-fold>potency biochemical: PTPN2 MSA IC50 of chromane comparator over thiochromane. On the procedure: Example 43: Mobility Shift Assay (MSA) Used to Determine Potency of PTPN2 Inhibitors
Compound activity was determined using in house His tagged PTPN2 (TC45) protein (SEQ ID NO: 1) in an in vitro enzymatic reaction. The enzymatic assay used to determine activity was a mobility shift assay using a LabChip EZ Reader by Caliper Life Sciences. The enzymatic reaction was carried out in assay buffer (50 mM HEPES pH 7.5, 1 mM EGTA, 10 mM EDTA, 0.01% Tween® 20, and 2 mM DTT). The compounds were dispensed on a white 384 well ProxiPlate™ (PerkinElmer Catalog #6008289) plate using the Labcyte Echo at varying concentrations (12 point, 1:3 dilution). The enzyme (at 0.5 nM) was incubated with compound for 10 minutes at room temperature. Thereafter, the substrate (phosphorylated insulin receptor probe sequence: ((OG488)-(NH—CH2—CH2—O—CH2—CH2—O—CH2—CO)-T-R-D-I—(PY)-E-T-D-Y—Y—R—K—K—NH2) (SEQ ID NO: 2) was added at 2 μM to the plates and incubated for another 10 minutes at room temperature. Finally, a quench solution (water and 4-bromo-3-(2-oxo-2-propoxyethoxy)-5-(3-{[1-(phenylmethanesulfonyl)piperidin-4-yl]amino}phenyl)thiophene-2-carboxylic acid) was added to the plates, which were then run on the EZ Reader (excitation 488 nm, emission 530 nm) to measure % conversion (the amount of phosphorylated substrate which was de-phosphorylated by PTPN2). […] The % inhibition was then used to calculate the IC50 values.

[4] abbreviates: Table 2, 3 hours compound, then mouse IFNγ 100 nM 10 minutes, top dose 50 μM, read-out: B16F10 IFNγ Induced pSTAT1 EC50.
Setting [5] is: Mus musculus, Table 3, B16F10 cells, IFNγ-induced, thiochromanes (X = S) and chromane comparators (X = O), read-out: pSTAT1 EC50.
Setting [6] is: enzyme 0.5 nM, substrate 2 μM, 10 minutes preincubation at room temperature.

Structures are written as SMILES. Like-named read-outs stand apart in the source and are kept apart here. Bounds are passed on as bounds.

On to `CC1=C(CCN[C@@H]2CSc3cc(O)c(N4CC(=O)NS4(=O)=O)c(F)c3C2)C(C)(C)CCC1` [Compound 140, 5-[(3S)-5-fluoro-7-hydroxy-3-{[2-(2,6,6-trimethylcyclohex-1-en-1-yl)ethyl]amino}-3,4-dihydro-2H-1-benzothiopyran-6-yl]-1λ^6,2,5-thiadiazolidine-1,1,3-trione], for which the IC50 in assay [1] and in assay [3] (setting [6]) was 10 to 100 nM throughout. Besides, the EC50 in assay [2] (setting [4]) and in assay [2] (setting [5]) was 2950 nM throughout. The “Thiochromane x-fold>potency cellular” value in assay [2] (Table 3) was more than 16.9. Further, the “Thiochromane x-fold>potency biochemical” value in assay [3] (Table 3) came to 1.5.
Regarding `CC(C)=CCN[C@@H]1CSc2cc(O)c(N3CC(=O)NS3(=O)=O)c(F)c2C1` [Compound 122, 5-{(3S)-5-fluoro-7-hydroxy-3-[(3-methylbut-2-en-1-yl)amino]-3,4-dihydro-2H-1-benzothiopyran-6-yl}-1λ^6,2,5-thiadiazolidine-1,1,3-trione], the IC50 in assay [1] and in assay [3] (setting [6]) was 10 to 100 nM in each case. For the same compound, the EC50 in assay [2] (setting [4]) amounted to 6390 nM.
Consider `CCC(CC)CCN[C@@H]1CSc2cc(O)c(N3CC(=O)NS3(=O)=O)c(F)c2C1` [Compound 119, 5-{(3S)-3-[(3-ethylpentyl)amino]-5-fluoro-7-hydroxy-3,4-dihydro-2H-1-benzothiopyran-6-yl}-1λ^6,2,5-thiadiazolidine-1,1,3-trione], for which the concentration for half-maximal inhibition (IC50) is 10 to 100 nM in assay [1] and less than 10 nM in assay [3] (setting [6]). Moreover, the EC50 in assay [2] (setting [4]) was 6660 nM.
Consider `CCC(C)(C)CCN[C@@H]1CSc2cc(O)c(N3CC(=O)NS3(=O)=O)c(F)c2C1` [Compound 124, 5-{(3S)-3-[(3,3-dimethylpentyl)amino]-5-fluoro-7-hydroxy-3,4-dihydro-2H-1-benzothiopyran-6-yl}-1λ^6,2,5-thiadiazolidine-1,1,3-trione], for which the IC50 was 10 to 100 nM in assay [1] and less than 10 nM in assay [3] (setting [6]). For the same compound, the EC50 in assay [2] (setting [4]) turned out to be 6940 nM.
On to `O=C1CN(c2c(O)cc3c(c2F)C[C@H](NCCCOCC(F)F)CS3)S(=O)(=O)N1` [Compound 137, 5-[(3S)-3-{[3-(2,2-difluoroethoxy)propyl]amino}-5-fluoro-7-hydroxy-3,4-dihydro-2H-1-benzothiopyran-6-yl]-1λ^6,2,5-thiadiazolidine-1,1,3-trione], for which the IC50 in assay [1] is 10 to 100 nM; in assay [3] (Table 3, thiochromanes (X = S) and chromane comparators (X = O)), 21 nM; in assay [3] (setting [6]), 10 to 100 nM. Also, the EC50 in assay [2] (setting [4]) and in assay [2] (setting [5]) was more than 50000 nM throughout. The “Thiochromane x-fold>potency cellular” value in assay [2] (Table 3) was approximately 1.0. Moreover, the “Thiochromane x-fold>potency biochemical” value in assay [3] (Table 3) is on record as 1.1.
With `CC(C)C(C)CN[C@@H]1CSc2cc(O)c(N3CC(=O)NS3(=O)=O)c(F)c2C1` (stereo partly drawn) [Compound 115, 5-{(3S)-3-[(2,3-dimethylbutyl)amino]-5-fluoro-7-hydroxy-3,4-dihydro-2H-1-benzothiopyran-6-yl}-1λ^6,2,5-thiadiazolidine-1,1,3-trione], the IC50 in assay [1] and in assay [3] (setting [6]) was less than 10 nM throughout. In addition, the EC50 in assay [2] (setting [4]) amounted to 1830 nM.
Regarding `O=C1CN(c2c(O)cc3c(c2F)C[C@H](NCC2CC(c4ccccc4)C2)CS3)S(=O)(=O)N1` (stereo partly drawn) [Compound 135, 5-[(3S)-5-fluoro-7-hydroxy-3-{[(3-phenylcyclobutyl)methyl]amino}-3,4-dihydro-2H-1-benzothiopyran-6-yl]-1λ^6,2,5-thiadiazolidine-1,1,3-trione], the IC50 in assay [1] is 10 to 100 nM; in assay [3] (setting [6]), less than 10 nM. Besides, the EC50 in assay [2] (setting [4]) and in assay [2] (setting [5]) was 688 nM throughout. Further, the “Thiochromane x-fold>potency cellular” value in assay [2] (Table 3) is more than 72.7. Besides, in assay [3] (Table 3), the “Thiochromane x-fold>potency biochemical” value was 1.9.
For `O=C1CN(c2c(O)cc3c(c2F)C[C@H](NCCCn2cccn2)CS3)S(=O)(=O)N1` [Compound 131, 5-[(3S)-5-fluoro-7-hydroxy-3-{[3-(1H-pyrazol-1-yl)propyl]amino}-3,4-dihydro-2H-1-benzothiopyran-6-yl]-1λ^6,2,5-thiadiazolidine-1,1,3-trione], the IC50 is more than 100 nM in assay [1] and 10 to 100 nM in assay [3] (setting [6]). Moreover, in assay [2] (setting [4]), the EC50 is more than 50000 nM.
As to `O=C1CN(c2c(O)cc3c(c2F)C[C@H](NCC2CCOCC2)CS3)S(=O)(=O)N1` [Compound 110, 5-[(3S)-5-fluoro-7-hydroxy-3-{[(oxan-4-yl)methyl]amino}-3,4-dihydro-2H-1-benzothiopyran-6-yl]-1λ^6,2,5-thiadiazolidine-1,1,3-trione], the IC50 in assay [1] and in assay [3] (setting [6]) was 10 to 100 nM in each case. Besides, in assay [2] (setting [4]), the concentration for a half-maximal effect (EC50) was 6990 nM.

These data come from patent US20250042894A1, “PROTEIN TYROSINE PHOSPHATASE INHIBITORS AND METHODS OF USE THEREOF” (Calico Life Sciences LLC, priority 2021, published 2025).
